# Data: patent publication US10273226B2, “Pyrazolyl-heteroarylamides as pesticides” (Bayer Animal Health GmbH, priority 2014, dated 2019)
# System: Ctenocephalides felis
# Assay: Ctenocephalides felis in vitro contact test with adult cat fleas
# Format: in vivo
# Details: application rate 5 μg/cm^2 (500 g/ha); after 48 h; fleas dead or moribund
# In short: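 Adult Ctenocephalides felis (5-10 per tube) were held 48 h at room temperature in tubes whose inner walls carried dried active ingredient, e.g. 5 μg/cm^2 from a 900 ppm acetone coating. Percent efficacy reflects fleas motionless or uncoordinated after being knocked to the tube base.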
row,Compound,efficacy
1,Cn1nc(C(F)(F)C(F)(F)F)c(C(F)(F)F)c1-n1cc(-c2ccc(F)c(NC(=O)c3cccs3)c2)cn1 [Example 1-049],100%
2,COc1cc(C(=O)Nc2cc(-c3cnn(-c4c(C(F)(F)F)c(C(F)(F)C(F)(F)F)nn4C)c3)ccc2F)ccc1F [Example 1-094],100%
3,Cn1nc(C(F)(F)C(F)(F)F)c(C(F)(F)F)c1-n1cc(-c2ccc(F)c(NC(=O)c3ccc(F)cc3)c2)cn1 [Example 1-027],100%
4,Cn1nc(C(F)(F)C(F)(F)F)c(C(F)(F)F)c1-n1cc(-c2cccc(NC(=O)c3ccccc3)c2)cn1 [Example 1-010],100%

# System: Rhipicephalus sanguineus
# Assay: Rhipicephalus sanguineus in vitro contact test with adult brown dog ticks
# Format: in vivo
# Details: application rate 5 μg/cm^2 (500 g/ha); after 48 h; ticks dead or moribund
# In short: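 Test tubes (25 ml) were coated by dissolving active ingredient in acetone p.a., diluting to the required concentration, and spreading 250 μl over the inner walls and base on an orbital shaker at 30 rpm for 2 h. Once dry, 5-10 adult Rhipicephalus sanguineus were added, and tubes were capped with perforated lids and kept horizontal in darkness at room temperature. At 48 h, ticks were knocked down and heated at 45-50° C. for up to 5 min. Those unable to climb away were counted dead or moribund, and efficacy ran from 0% to 100%.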
row,Compound,efficacy
1,Cn1nc(C(F)(F)C(F)(F)F)c(C(F)(F)F)c1-n1cc(-c2ccc(F)c(NC(=O)c3cccs3)c2)cn1 [Example 1-049],100%
2,COc1cc(C(=O)Nc2cc(-c3cnn(-c4c(C(F)(F)F)c(C(F)(F)C(F)(F)F)nn4C)c3)ccc2F)ccc1F [Example 1-094],100%
3,Cn1nc(C(F)(F)C(F)(F)F)c(C(F)(F)F)c1-n1cc(-c2ccc(F)c(NC(=O)c3ccc(F)cc3)c2)cn1 [Example 1-027],100%
4,Cn1nc(C(F)(F)C(F)(F)F)c(C(F)(F)F)c1-n1cc(-c2cccc(NC(=O)c3ccccc3)c2)cn1 [Example 1-010],100%

# System: Boophilus microplus Parkhurst strain, SP-resistant
# Assay: Boophilus microplus dip test
# Format: in vivo
# Details: application rate 100 ppm, assessed after 7 days
# Method: Boophilus microplus—Dip Test
# Test animals: cattle ticks (Boophilus microplus) Parkhurst strain, SP-resistant
# Solvent: dimethyl sulphoxide
# 10 mg of active ingredient are dissolved in 0.5 ml of dimethyl sulphoxide. For the purpose of producing a suitable formulation, the active ingredient solution is diluted with water to the concentration desired in each case.
# This active ingredient formulation is pipetted into tubes. 8-10 adult engorged female cattle ticks (Boophilus microplus) are transferred into a further tube with holes. The tube is immersed into the active ingredient formulation, and all the ticks are completely wetted. After the liquid has run out, the ticks are transferred on filter discs into plastic dishes and stored in a climate-controlled room.
# Efficacy is assessed after 7 days by laying of fertile eggs. Eggs which are not visibly fertile are stored in a climate-controlled cabinet until the larvae hatch after about 42 days. An efficacy of 100% means that none of the ticks has laid any fertile eggs; 0% means that all the eggs are fertile.
row,Compound,efficacy (laying of fertile eggs)
1,Cn1nc(C(F)(F)C(F)(F)F)c(C(F)(F)F)c1-n1cc(-c2ccc(F)c(NC(=O)c3cccs3)c2)cn1 [Example 1-049],100%
2,COc1cc(C(=O)Nc2cc(-c3cnn(-c4c(C(F)(F)F)c(C(F)(F)C(F)(F)F)nn4C)c3)ccc2F)ccc1F [Example 1-094],100%
3,Cn1nc(C(F)(F)C(F)(F)F)c(C(F)(F)F)c1-n1cc(-c2ccc(F)c(NC(=O)c3ccc(F)cc3)c2)cn1 [Example 1-027],100%
4,Cn1nc(C(F)(F)C(F)(F)F)c(C(F)(F)F)c1-n1cc(-c2cccc(NC(=O)c3ccccc3)c2)cn1 [Example 1-010],90%

# System: Boophilus microplus
# Assay: Boophilus microplus injection test
# Format: in vivo
# Details: application rate 20 μg/animal; injection into abdomen; assessed after 7 days
# In short: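 Scoring was by fertile egg laying 7 days after injection, holding doubtful eggs until larvae hatched at about 42 days; 100% = no fertile eggs, 0% = all eggs fertile. Groups of 5 engorged adult female cattle ticks were each injected abdominally with 1 μl of compound in DMSO.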
row,Compound,efficacy (laying of fertile eggs)
1,Cn1nc(C(F)(F)C(F)(F)F)c(C(F)(F)F)c1-n1cc(-c2ccc(F)c(NC(=O)c3cccs3)c2)cn1 [Example 1-049],100%
2,COc1cc(C(=O)Nc2cc(-c3cnn(-c4c(C(F)(F)F)c(C(F)(F)C(F)(F)F)nn4C)c3)ccc2F)ccc1F [Example 1-094],100%
3,Cn1nc(C(F)(F)C(F)(F)F)c(C(F)(F)F)c1-n1cc(-c2ccc(F)c(NC(=O)c3ccc(F)cc3)c2)cn1 [Example 1-027],100%
4,Cn1nc(C(F)(F)C(F)(F)F)c(C(F)(F)F)c1-n1cc(-c2cccc(NC(=O)c3ccccc3)c2)cn1 [Example 1-010],100%

# System: Ctenocephalides felis
# Assay: Ctenocephalides felis oral test
# Format: in vivo
# Details: application rate 100 ppm in citrated cattle blood; after 2 days
# In short: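 DMSO stock, diluted in citrated cattle blood; ~20 unfed adult fleas feed through parafilm; % kill read at day 2 (0% = none killed).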
row,Compound,efficacy (kill in %)
1,Cn1nc(C(F)(F)C(F)(F)F)c(C(F)(F)F)c1-n1cc(-c2ccc(F)c(NC(=O)c3cccs3)c2)cn1 [Example 1-049],100%
2,COc1cc(C(=O)Nc2cc(-c3cnn(-c4c(C(F)(F)F)c(C(F)(F)C(F)(F)F)nn4C)c3)ccc2F)ccc1F [Example 1-094],100%
3,Cn1nc(C(F)(F)C(F)(F)F)c(C(F)(F)F)c1-n1cc(-c2ccc(F)c(NC(=O)c3ccc(F)cc3)c2)cn1 [Example 1-027],100%
4,Cn1nc(C(F)(F)C(F)(F)F)c(C(F)(F)F)c1-n1cc(-c2cccc(NC(=O)c3ccccc3)c2)cn1 [Example 1-010],100%

# System: Lucilia cuprina
# Assay: Lucilia cuprina test
# Format: in vivo
# Details: application rate 100 ppm; L1 larvae; after 2 days
# In short: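 Mortality read at 2 days as percent larvae killed (100% = all, 0% = none). Test used roughly 20 first-instar larvae on minced horsemeat dosed with water-diluted DMSO formulation of compound.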
row,Compound,efficacy (kill in %)
1,Cn1nc(C(F)(F)C(F)(F)F)c(C(F)(F)F)c1-n1cc(-c2ccc(F)c(NC(=O)c3cccs3)c2)cn1 [Example 1-049],100%
2,COc1cc(C(=O)Nc2cc(-c3cnn(-c4c(C(F)(F)F)c(C(F)(F)C(F)(F)F)nn4C)c3)ccc2F)ccc1F [Example 1-094],100%
3,Cn1nc(C(F)(F)C(F)(F)F)c(C(F)(F)F)c1-n1cc(-c2ccc(F)c(NC(=O)c3ccc(F)cc3)c2)cn1 [Example 1-027],100%
4,Cn1nc(C(F)(F)C(F)(F)F)c(C(F)(F)F)c1-n1cc(-c2cccc(NC(=O)c3ccccc3)c2)cn1 [Example 1-010],100%

# System: Musca domestica
# Assay: Musca domestica test
# Format: in vivo
# Details: application rate 100 ppm; adult houseflies; after 2 days
# In short: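 10 adult flies per vessel; sugar-solution sponge dosed with active ingredient formulation (DMSO concentrate diluted in water to desired concentration). Read-out: % kill at 2 days.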
row,Compound,efficacy (kill in %)
1,Cn1nc(C(F)(F)C(F)(F)F)c(C(F)(F)F)c1-n1cc(-c2ccc(F)c(NC(=O)c3cccs3)c2)cn1 [Example 1-049],80%
2,COc1cc(C(=O)Nc2cc(-c3cnn(-c4c(C(F)(F)F)c(C(F)(F)C(F)(F)F)nn4C)c3)ccc2F)ccc1F [Example 1-094],100%
3,Cn1nc(C(F)(F)C(F)(F)F)c(C(F)(F)F)c1-n1cc(-c2ccc(F)c(NC(=O)c3ccc(F)cc3)c2)cn1 [Example 1-027],100%
4,Cn1nc(C(F)(F)C(F)(F)F)c(C(F)(F)F)c1-n1cc(-c2cccc(NC(=O)c3ccccc3)c2)cn1 [Example 1-010],100%

# System: Myzus persicae
# Assay: Myzus persicae spray test
# Format: in vivo
# Details: application rate 100 g/ha; after 6 days
# Method: Myzus persicae—Spray Test
# To produce an appropriate active ingredient formulation, 1 part by weight of active ingredient is dissolved using the specified parts by weight of solvent and made up with water containing an emulsifier concentration of 1000 ppm until the desired concentration is attained. To produce further test concentrations, the preparation is diluted with emulsifier-containing water.
# Discs of Chinese cabbage leaves (Brassica pekinensis) infested by all stages of the green peach aphid (Myzus persicae) are sprayed with an active ingredient formulation of the desired concentration.
# After 6 days, efficacy in % is determined. 100% means that all the aphids have been killed; 0% means that none of the aphids have been killed.
row,Compound,efficacy
1,Cn1nc(C(F)(F)C(F)(F)F)c(C(F)(F)F)c1-n1cc(-c2ccc(F)c(NC(=O)c3ccc(F)cc3)c2)cn1 [Example 1-027],100%
2,Cn1nc(C(F)(F)C(F)(F)F)c(C(F)(F)F)c1-n1cc(-c2cccc(NC(=O)c3ccccc3)c2)cn1 [Example 1-010],100%

# System: Phaedon cochleariae
# Assay: Phaedon cochleariae spray test
# Format: in vivo
# Details: application rate 100 g/ha; larvae; after 7 days
# In short: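 Mortality of Phaedon larvae, in %, was read 7 days after release onto sprayed, dried Brassica pekinensis leaf discs. Test dilutions were prepared in water with 1000 ppm emulsifier. A score of 0% means no larvae died and 100% means all were killed.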
row,Compound,efficacy
1,COc1cc(C(=O)Nc2cc(-c3cnn(-c4c(C(F)(F)F)c(C(F)(F)C(F)(F)F)nn4C)c3)ccc2F)ccc1F [Example 1-094],100%
2,Cn1nc(C(F)(F)C(F)(F)F)c(C(F)(F)F)c1-n1cc(-c2ccc(F)c(NC(=O)c3ccc(F)cc3)c2)cn1 [Example 1-027],100%
3,Cn1nc(C(F)(F)C(F)(F)F)c(C(F)(F)F)c1-n1cc(-c2cccc(NC(=O)c3ccccc3)c2)cn1 [Example 1-010],100%

# System: Spodoptera frugiperda
# Assay: Spodoptera frugiperda spray test
# Format: in vivo
# Details: application rate 100 g/ha; caterpillars; after 7 days
# In short: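 Percent kill of armyworm caterpillars was scored 7 days after they were placed on dried, sprayed Zea mays leaf discs. Spray solutions were made by dissolving active ingredient in solvent and diluting with 1000 ppm emulsifier water.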
row,Compound,efficacy
1,COc1cc(C(=O)Nc2cc(-c3cnn(-c4c(C(F)(F)F)c(C(F)(F)C(F)(F)F)nn4C)c3)ccc2F)ccc1F [Example 1-094],83%
2,Cn1nc(C(F)(F)C(F)(F)F)c(C(F)(F)F)c1-n1cc(-c2ccc(F)c(NC(=O)c3ccc(F)cc3)c2)cn1 [Example 1-027],100%
3,Cn1nc(C(F)(F)C(F)(F)F)c(C(F)(F)F)c1-n1cc(-c2cccc(NC(=O)c3ccccc3)c2)cn1 [Example 1-010],100%

# System: Tetranychus urticae
# Assay: Tetranychus urticae spray test, OP-resistant
# Format: in vivo
# Details: application rate 100 g/ha; after 6 days
# In short: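 Percent kill is assessed 6 days after spraying infested Phaseolus vulgaris leaf discs, with all mite stages present. Compound is applied as a solvent/emulsifier aqueous formulation at the desired concentration.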
row,Compound,efficacy
1,COc1cc(C(=O)Nc2cc(-c3cnn(-c4c(C(F)(F)F)c(C(F)(F)C(F)(F)F)nn4C)c3)ccc2F)ccc1F [Example 1-094],100%
2,Cn1nc(C(F)(F)C(F)(F)F)c(C(F)(F)F)c1-n1cc(-c2ccc(F)c(NC(=O)c3ccc(F)cc3)c2)cn1 [Example 1-027],100%
3,Cn1nc(C(F)(F)C(F)(F)F)c(C(F)(F)F)c1-n1cc(-c2cccc(NC(=O)c3ccccc3)c2)cn1 [Example 1-010],100%
